{"source": "paper PMC10485820", "about": "(European Journal of Pharmaceutical Sciences, 2023)", "key": {"[1]": {"assay": "Mass balance study (CTR20201559)", "format": "in vivo, human"}, "[2]": {"assay": "Bioavailability in rats (unpublished)", "settings": "rat, in vivo, oral"}, "[3]": {"assay": "Bioavailability in beagle dogs (unpublished)", "settings": "dog, in vivo, oral"}, "[4]": {"molecular_target": "T1, OCT2 (Homo sapiens, UniProt O15244)", "T1 sequence (O15244 1-555)": "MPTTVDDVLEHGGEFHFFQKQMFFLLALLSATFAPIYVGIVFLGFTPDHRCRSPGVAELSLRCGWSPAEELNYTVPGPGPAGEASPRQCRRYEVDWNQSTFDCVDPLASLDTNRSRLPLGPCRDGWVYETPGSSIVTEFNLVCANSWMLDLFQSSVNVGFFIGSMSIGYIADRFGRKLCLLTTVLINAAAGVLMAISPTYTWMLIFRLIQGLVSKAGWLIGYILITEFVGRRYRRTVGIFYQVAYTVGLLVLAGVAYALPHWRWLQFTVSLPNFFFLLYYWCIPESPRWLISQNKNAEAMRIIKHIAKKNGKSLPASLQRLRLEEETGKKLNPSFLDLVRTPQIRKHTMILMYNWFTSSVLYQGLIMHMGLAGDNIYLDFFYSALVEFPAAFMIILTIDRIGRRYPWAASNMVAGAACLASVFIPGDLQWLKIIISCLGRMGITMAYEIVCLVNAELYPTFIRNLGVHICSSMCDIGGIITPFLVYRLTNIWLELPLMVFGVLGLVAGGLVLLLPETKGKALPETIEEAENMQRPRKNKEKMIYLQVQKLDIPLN", "assay": "Preclinical transporter substrate assessment (unpublished)", "format": "in vitro ADME"}, "[5]": {"molecular_target": "MATE2-K (Homo sapiens, UniProt Q86VL8)", "sequence (Q86VL8 1-566 isoform Q86VL8-3, species assumed)": "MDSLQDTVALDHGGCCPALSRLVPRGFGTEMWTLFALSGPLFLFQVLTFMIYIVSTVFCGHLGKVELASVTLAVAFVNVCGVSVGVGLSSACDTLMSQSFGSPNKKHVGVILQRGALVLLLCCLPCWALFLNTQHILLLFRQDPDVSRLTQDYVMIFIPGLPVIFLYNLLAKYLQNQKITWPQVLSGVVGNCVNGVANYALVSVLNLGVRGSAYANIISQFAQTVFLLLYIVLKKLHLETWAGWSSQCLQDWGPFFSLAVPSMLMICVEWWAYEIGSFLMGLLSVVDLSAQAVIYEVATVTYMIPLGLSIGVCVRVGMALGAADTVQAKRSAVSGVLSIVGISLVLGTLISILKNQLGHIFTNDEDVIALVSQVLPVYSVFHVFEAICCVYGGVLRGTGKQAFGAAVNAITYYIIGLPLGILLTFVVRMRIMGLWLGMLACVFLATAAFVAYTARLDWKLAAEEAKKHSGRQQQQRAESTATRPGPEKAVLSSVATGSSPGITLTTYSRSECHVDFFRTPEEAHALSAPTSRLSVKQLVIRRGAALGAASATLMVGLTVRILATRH", "assay": "Preclinical transporter substrate assessment (unpublished)", "format": "in vitro ADME"}, "[6]": {"molecular_target": "P-glycoprotein (P-gp) (Homo sapiens, UniProt P08183)", "sequence (P08183 whole entry)": "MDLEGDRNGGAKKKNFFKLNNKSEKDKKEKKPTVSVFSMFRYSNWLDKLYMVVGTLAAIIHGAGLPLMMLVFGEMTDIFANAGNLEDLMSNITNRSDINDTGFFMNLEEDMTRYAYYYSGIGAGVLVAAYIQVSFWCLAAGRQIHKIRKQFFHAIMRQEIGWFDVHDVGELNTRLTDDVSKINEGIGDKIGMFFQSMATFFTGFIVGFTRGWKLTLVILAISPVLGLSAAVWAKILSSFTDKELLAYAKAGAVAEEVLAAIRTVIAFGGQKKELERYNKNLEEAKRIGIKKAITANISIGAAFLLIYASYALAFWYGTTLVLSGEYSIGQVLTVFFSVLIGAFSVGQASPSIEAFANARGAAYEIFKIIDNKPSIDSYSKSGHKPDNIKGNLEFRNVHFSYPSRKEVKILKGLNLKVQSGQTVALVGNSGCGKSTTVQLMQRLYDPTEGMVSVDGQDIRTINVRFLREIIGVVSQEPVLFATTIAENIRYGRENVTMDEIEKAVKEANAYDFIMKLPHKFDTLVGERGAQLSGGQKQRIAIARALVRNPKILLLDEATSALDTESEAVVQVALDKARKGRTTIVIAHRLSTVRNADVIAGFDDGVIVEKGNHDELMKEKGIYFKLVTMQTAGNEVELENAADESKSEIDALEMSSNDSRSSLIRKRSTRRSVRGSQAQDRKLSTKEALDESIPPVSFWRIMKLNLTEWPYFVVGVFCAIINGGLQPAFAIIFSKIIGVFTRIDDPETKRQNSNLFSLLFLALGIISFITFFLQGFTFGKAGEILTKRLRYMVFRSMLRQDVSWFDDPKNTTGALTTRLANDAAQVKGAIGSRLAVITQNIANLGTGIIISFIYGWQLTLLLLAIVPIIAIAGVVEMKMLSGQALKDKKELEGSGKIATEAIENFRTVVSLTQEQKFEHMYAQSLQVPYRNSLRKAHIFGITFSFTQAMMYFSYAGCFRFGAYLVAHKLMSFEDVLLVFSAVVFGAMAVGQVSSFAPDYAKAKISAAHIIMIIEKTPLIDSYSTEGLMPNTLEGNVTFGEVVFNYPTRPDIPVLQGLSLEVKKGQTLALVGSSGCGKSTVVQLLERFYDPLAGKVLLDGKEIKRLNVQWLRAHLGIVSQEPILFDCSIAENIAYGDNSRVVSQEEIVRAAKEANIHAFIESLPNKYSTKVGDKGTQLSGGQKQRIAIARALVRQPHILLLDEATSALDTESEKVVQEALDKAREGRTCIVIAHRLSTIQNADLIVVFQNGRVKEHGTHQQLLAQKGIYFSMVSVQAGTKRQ", "assay": "Preclinical transporter substrate assessment (unpublished)", "format": "in vitro ADME"}, "[7]": {"assay": "Single ascending dose clinical study in Chinese healthy volunteers (CTR20180791): pharmacokinetics", "format": "in vivo, human", "settings": "for AUC / Cmax / clearance / Vd/F: human, in vivo, oral, Chinese healthy volunteers; for clearance: read-out: CL Obs (converted); for Vd/F: read-out: VZ/F Obs"}, "[8]": {"settings": "mass balance study, unpublished"}, "[9]": {"settings": "10 mg, 10 mg single dose, fasted"}, "[10]": {"settings": "25 mg, 25 mg single dose, fasted"}, "[11]": {"settings": "50 mg, 50 mg single dose, fasted"}, "[12]": {"settings": "100 mg, 100 mg single dose, fasted"}, "[13]": {"settings": "150 mg, 150 mg single dose, fasted"}}, "note": "Read-outs that look alike come from different tables or passages of the source."}
{"smiles": "CS(=O)(=O)n1cc2c(n1)CN([C@@H]1C[C@H](N)[C@@H](c3cc(F)ccc3F)O[C@@H]1C(F)(F)F)C2", "note": "[HSK7653]", "values": [{"measurement": "Fecal excretion of unchanged compound", "setting": "[1]; mass balance study", "value": 7.40, "unit": "%"}, {"measurement": "Unchanged drug excreted by the kidney", "setting": "[1]; mass balance study", "value": 68.1, "unit": "%"}, {"measurement": "Unrecovered radioactive substances (unknown pathway)", "setting": "[1]; mass balance study", "value": 4.1, "unit": "%"}, {"measurement": "Detected (recovered) radioactivity", "setting": "[1]; [8]", "value": 95.9, "unit": "%"}, {"measurement": "Unextracted radioactive substrates in feces", "setting": "[1]; [8]", "value": 2.99, "unit": "%"}, {"measurement": "Unextracted radioactive substrates in urine", "setting": "[1]; [8]", "value": 1.99, "unit": "%"}, {"measurement": "Unextracted radioactivity in urine and feces (sum)", "setting": "[1]; sum of unextracted radioactivity in urine and feces", "value": "approximately 4.98%"}, {"measurement": "bioavailability", "setting": "[2]", "value": 94.5, "unit": "%"}, {"measurement": "bioavailability", "setting": "[3]", "value": 70.9, "unit": "%"}, {"measurement": "Transporter substrate assessment", "setting": "[4]", "value": "not a common transport substrate"}, {"measurement": "Transporter substrate assessment", "setting": "[5]", "value": "not a common transport substrate"}, {"measurement": "Transporter substrate assessment", "setting": "[6]", "value": "not a common transport substrate"}, {"measurement": "Increase in AUC under the fed state compared with the fasted state", "setting": "[7]; clinical study", "value": 3, "unit": "%"}, {"measurement": "AUC", "setting": "[7]; 5 mg, 5 mg single dose, fasted", "value": 8980, "unit": "ng·h/mL"}, {"measurement": "Cmax", "setting": "[7]; 5 mg, 5 mg single dose, fasted", "value": 101, "unit": "ng/mL"}, {"measurement": "clearance", "setting": "[7]; 5 mg, 5 mg single dose, fasted", "value": 9.67, "unit": "mL/min"}, {"measurement": "Vd/F", "setting": "[7]; 5 mg, 5 mg single dose, fasted", "value": 1.65, "unit": "L/kg"}, {"measurement": "AUC", "setting": "[7]; [9]", "value": 17700, "unit": "ng·h/mL"}, {"measurement": "Cmax", "setting": "[7]; [9]", "value": 237, "unit": "ng/mL"}, {"measurement": "clearance", "setting": "[7]; [9]", "value": 9.67, "unit": "mL/min"}, {"measurement": "Vd/F", "setting": "[7]; [9]", "value": 1.71, "unit": "L/kg"}, {"measurement": "AUC", "setting": "[7]; [10]", "value": 40500, "unit": "ng·h/mL"}, {"measurement": "Cmax", "setting": "[7]; [10]", "value": 413, "unit": "ng/mL"}, {"measurement": "clearance", "setting": "[7]; [10]", "value": 10.2, "unit": "mL/min"}, {"measurement": "Vd/F", "setting": "[7]; [10]", "value": 1.52, "unit": "L/kg"}, {"measurement": "AUC", "setting": "[7]; [11]", "value": 90400, "unit": "ng·h/mL"}, {"measurement": "Cmax", "setting": "[7]; [11]", "value": 981, "unit": "ng/mL"}, {"measurement": "clearance", "setting": "[7]; [11]", "value": 9.67, "unit": "mL/min"}, {"measurement": "Vd/F", "setting": "[7]; [11]", "value": 1.26, "unit": "L/kg"}, {"measurement": "AUC", "setting": "[7]; 50 mg, 50 mg single dose, fed", "value": 92900, "unit": "ng·h/mL"}, {"measurement": "Cmax", "setting": "[7]; 50 mg, 50 mg single dose, fed", "value": 834, "unit": "ng/mL"}, {"measurement": "clearance", "setting": "[7]; 50 mg, 50 mg single dose, fed", "value": 9.5, "unit": "mL/min"}, {"measurement": "Vd/F", "setting": "[7]; 50 mg, 50 mg single dose, fed", "value": 1.37, "unit": "L/kg"}, {"measurement": "AUC", "setting": "[7]; [12]", "value": 218000, "unit": "ng·h/mL"}, {"measurement": "Cmax", "setting": "[7]; [12]", "value": 2130, "unit": "ng/mL"}, {"measurement": "clearance", "setting": "[7]; [12]", "value": 8.33, "unit": "mL/min"}, {"measurement": "Vd/F", "setting": "[7]; [12]", "value": 1.07, "unit": "L/kg"}, {"measurement": "AUC", "setting": "[7]; [13]", "value": 269000, "unit": "ng·h/mL"}, {"measurement": "Cmax", "setting": "[7]; [13]", "value": 3330, "unit": "ng/mL"}, {"measurement": "clearance", "setting": "[7]; [13]", "value": 11, "unit": "mL/min"}, {"measurement": "Vd/F", "setting": "[7]; [13]", "value": 1.13, "unit": "L/kg"}, {"measurement": "Dose linearity", "setting": "[7]; within the currently selected therapeutic dose range", "value": "dose linear"}]}
